{"source": "ChEMBL document CHEMBL1201862", "about": "“PubChem BioAssay data set” (2004)", "key": {"[1]": {"molecular_target": "T1, Short transient receptor potential channel 4 (Mus musculus, UniProt Q9QUQ5)", "T1 sequence (Q9QUQ5 whole entry)": "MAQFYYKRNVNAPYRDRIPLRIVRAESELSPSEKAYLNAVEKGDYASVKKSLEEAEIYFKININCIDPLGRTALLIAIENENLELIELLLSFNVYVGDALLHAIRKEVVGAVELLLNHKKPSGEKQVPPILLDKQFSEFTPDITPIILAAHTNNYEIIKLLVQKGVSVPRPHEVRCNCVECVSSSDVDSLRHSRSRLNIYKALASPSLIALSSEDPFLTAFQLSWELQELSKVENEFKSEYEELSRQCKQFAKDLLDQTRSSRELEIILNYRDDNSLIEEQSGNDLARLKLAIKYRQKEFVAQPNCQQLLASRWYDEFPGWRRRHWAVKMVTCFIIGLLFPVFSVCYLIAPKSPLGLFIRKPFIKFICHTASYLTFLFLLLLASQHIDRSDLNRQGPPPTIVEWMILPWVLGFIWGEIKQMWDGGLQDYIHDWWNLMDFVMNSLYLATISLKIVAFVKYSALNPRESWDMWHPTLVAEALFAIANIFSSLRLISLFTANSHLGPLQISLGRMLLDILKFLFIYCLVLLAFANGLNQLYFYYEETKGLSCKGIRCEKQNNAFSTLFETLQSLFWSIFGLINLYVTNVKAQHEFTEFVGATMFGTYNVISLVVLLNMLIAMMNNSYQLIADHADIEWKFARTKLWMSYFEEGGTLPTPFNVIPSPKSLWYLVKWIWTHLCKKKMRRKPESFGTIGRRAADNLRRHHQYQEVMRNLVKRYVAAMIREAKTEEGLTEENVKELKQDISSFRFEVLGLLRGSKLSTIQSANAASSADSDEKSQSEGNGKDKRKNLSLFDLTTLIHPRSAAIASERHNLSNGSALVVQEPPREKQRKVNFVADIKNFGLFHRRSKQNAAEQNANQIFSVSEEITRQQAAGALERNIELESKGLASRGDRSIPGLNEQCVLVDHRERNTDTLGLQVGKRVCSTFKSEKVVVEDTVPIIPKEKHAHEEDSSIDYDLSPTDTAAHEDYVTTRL", "test": "TRPC4 positive allosteric modulators, dose response, cell-based, HEK293 TRPC4/mu-opioid, Fluo-4 calcium, EC20 DAMGO (AID 434941)", "assay_type": "functional"}, "[2]": {"molecular_target": "G-protein coupled receptor 55 (Homo sapiens, UniProt Q9Y2T6)", "sequence (Q9Y2T6 whole entry)": "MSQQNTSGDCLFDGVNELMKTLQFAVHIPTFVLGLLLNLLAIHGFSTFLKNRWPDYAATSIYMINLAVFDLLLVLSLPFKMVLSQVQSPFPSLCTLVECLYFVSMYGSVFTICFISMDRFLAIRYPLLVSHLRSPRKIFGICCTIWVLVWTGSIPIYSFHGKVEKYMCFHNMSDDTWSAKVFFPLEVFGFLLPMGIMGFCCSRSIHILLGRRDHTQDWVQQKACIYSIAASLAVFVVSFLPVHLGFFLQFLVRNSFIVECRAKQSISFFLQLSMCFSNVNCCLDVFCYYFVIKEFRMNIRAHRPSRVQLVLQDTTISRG", "test": "GPR55 agonists via beta-arrestin recruitment, primary screen, imaging, U2OS cells, beta-arrestin-GFP redistribution (AID 1961)", "assay_type": "functional"}, "Vero [3]": {"system": "Vero", "test": "cells", "assay_type": "functional", "conditions": "Chlorocebus sabaeus"}, "[4]": {"molecular_target": "1-acylglycerol-3-phosphate O-acyltransferase ABHD5/Perilipin-5 (Homo sapiens, UniProt Q00G26+Q8WTS1)", "sequence (Q00G26 whole entry, the tested form may be a part)": "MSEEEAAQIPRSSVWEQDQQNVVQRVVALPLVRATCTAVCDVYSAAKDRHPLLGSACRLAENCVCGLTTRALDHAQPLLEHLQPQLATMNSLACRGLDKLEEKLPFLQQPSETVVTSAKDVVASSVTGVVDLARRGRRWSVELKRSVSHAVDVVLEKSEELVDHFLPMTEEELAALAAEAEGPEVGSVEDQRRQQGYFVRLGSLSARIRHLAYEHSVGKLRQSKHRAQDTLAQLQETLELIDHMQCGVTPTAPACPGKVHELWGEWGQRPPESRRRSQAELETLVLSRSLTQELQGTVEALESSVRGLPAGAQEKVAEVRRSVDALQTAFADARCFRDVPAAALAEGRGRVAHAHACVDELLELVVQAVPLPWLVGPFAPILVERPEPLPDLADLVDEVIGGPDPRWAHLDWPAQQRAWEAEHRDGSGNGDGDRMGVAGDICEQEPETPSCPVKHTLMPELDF", "sequence (Q8WTS1 whole entry, the tested form may be a part)": "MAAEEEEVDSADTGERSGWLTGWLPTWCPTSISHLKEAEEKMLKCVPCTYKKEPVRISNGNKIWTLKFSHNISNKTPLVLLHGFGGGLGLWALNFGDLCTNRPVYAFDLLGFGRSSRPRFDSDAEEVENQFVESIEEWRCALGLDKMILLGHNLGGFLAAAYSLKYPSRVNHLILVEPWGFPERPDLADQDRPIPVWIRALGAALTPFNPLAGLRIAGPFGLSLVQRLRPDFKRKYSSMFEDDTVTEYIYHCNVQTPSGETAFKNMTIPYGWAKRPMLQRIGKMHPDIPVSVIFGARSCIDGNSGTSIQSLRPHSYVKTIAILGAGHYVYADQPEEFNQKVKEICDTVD", "test": "Luminescence-based biochemical high throughput dose response assay for inhibitors of the interaction of the lipase co-activator protein, abhydrolase domain containing 5 (ABHD5) with perilipin-5 (MLDP; PLIN5) (2K validation set). [Related pubchem assays (depositor defined):AID493035, AID493241]"}, "[5]": {"test": "HeLa cell cytotoxicity, dose response, cytotoxicity control for MgcRacGAP inhibitor project (AID 624300)", "assay_type": "functional"}, "Vero [6]": {"system": "Vero", "test": "cells", "assay_type": "functional, cell-based", "conditions": "Chlorocebus sabaeus"}, "Perilipin-1/ABHD5": {"molecular_target": "Perilipin-1/ABHD5 (Homo sapiens, UniProt O60240+Q8WTS1)", "sequence (Q8WTS1 whole entry, the tested form may be a part)": "as above", "sequence (O60240 whole entry, the tested form may be a part)": "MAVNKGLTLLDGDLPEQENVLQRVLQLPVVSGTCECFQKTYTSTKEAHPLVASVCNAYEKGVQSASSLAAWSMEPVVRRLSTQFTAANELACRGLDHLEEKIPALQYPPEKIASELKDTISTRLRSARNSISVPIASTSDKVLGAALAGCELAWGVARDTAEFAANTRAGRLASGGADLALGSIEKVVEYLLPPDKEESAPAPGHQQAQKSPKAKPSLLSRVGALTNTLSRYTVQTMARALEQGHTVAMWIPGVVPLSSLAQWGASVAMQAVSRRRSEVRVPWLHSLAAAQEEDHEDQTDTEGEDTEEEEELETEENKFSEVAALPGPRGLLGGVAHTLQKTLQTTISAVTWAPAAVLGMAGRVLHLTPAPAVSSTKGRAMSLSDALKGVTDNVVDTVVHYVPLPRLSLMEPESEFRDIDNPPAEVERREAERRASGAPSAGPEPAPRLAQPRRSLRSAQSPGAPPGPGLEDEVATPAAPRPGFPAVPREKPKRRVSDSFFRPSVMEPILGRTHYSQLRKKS", "test": "Luminescence-based biochemical high throughput dose response assay for inhibitors of the interaction of the lipase co-activator protein, abhydrolase domain containing 5 (ABHD5) with perilipin-1 (PLIN1) (2K validation set). [Related pubchem assays (depositor defined):AID493027, AID493057]"}, "Trypsin": {"molecular_target": "Trypsin (Sus scrofa, UniProt P00761)", "sequence (P00761 whole entry)": "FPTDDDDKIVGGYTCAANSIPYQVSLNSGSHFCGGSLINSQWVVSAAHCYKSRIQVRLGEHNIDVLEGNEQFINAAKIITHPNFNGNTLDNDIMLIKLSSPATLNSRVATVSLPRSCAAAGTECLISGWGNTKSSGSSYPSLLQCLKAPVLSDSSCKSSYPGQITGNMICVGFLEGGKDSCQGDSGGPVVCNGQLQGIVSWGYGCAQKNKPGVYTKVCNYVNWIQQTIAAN", "test": "porcine trypsin inhibitors, dose response, selectivity assay for Rce1 protease inhibitor project, biochemical, quenched peptide fluorescence, cherry-pick (AID 488789)"}, "[7]": {"molecular_target": "T2, Neuropeptide Y receptor type 1 (Homo sapiens, UniProt P25929)", "T2 sequence (P25929 whole entry)": "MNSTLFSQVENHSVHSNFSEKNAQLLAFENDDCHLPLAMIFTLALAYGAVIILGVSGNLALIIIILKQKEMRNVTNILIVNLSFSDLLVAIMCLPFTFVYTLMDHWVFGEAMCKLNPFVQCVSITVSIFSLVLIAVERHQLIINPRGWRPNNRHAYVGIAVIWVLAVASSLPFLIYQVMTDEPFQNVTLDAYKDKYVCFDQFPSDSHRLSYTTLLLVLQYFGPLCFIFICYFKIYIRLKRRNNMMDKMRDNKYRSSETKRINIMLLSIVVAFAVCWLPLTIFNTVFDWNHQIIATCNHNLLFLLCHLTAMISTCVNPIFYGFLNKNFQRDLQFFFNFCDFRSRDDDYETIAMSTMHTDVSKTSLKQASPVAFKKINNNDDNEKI", "test": "Fluorescence-based counterscreen for agonists of NPY-Y2: cell-based high-throughput dose response assay for agonists of NPY-Y1.", "assay_type": "functional"}, "[8]": {"molecular_target": "T3, Neuropeptide Y receptor type 2 (Homo sapiens, UniProt P49146)", "T3 sequence (P49146 whole entry)": "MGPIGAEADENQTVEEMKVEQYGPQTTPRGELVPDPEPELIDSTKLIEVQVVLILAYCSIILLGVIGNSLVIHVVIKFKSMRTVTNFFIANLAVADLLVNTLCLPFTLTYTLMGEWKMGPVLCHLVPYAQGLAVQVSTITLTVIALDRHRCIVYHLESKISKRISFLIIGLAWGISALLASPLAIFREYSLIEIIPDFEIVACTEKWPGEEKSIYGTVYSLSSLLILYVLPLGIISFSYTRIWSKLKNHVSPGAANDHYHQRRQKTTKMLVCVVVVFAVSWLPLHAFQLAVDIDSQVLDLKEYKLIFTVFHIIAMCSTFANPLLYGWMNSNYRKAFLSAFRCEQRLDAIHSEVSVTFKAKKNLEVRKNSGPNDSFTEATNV", "test": "Fluorescence-based cell-based high-throughput dose response assay for agonists of NPY-Y2. [Related pubchem assays: 1703 (Screening assay (CNGC inhibitors).), 1359 (Screening assay (NPY-Y2 potentiators or agonists).), 1304 (Screening assay (NPY-Y1 potentiators or agonists).), 1710 (Screening assay (NPY-Y2 agonists).), 1791 (Summary AID.)]", "assay_type": "functional"}, "HEK293": {"system": "HEK293", "test": "Fluorescence-based counterscreen for potentiators or agonists of NPY-Y2: cell-based high-throughput dose response assay to identify inhibitors of cyclic nucleotide gated ion channel (CNGC) activity. In this assay, the parental HEK293 cell line transfected with a cyclic-nucleotide gated ion channel (CNGC)-based cAMP sensor is used to measure inhibition of isoproterenol-induced CNGC activity by test compound.", "assay_type": "functional", "conditions": "Homo sapiens"}, "Neutrophil collagenase": {"molecular_target": "Neutrophil collagenase (Homo sapiens, UniProt P22894)", "sequence (P22894 whole entry)": "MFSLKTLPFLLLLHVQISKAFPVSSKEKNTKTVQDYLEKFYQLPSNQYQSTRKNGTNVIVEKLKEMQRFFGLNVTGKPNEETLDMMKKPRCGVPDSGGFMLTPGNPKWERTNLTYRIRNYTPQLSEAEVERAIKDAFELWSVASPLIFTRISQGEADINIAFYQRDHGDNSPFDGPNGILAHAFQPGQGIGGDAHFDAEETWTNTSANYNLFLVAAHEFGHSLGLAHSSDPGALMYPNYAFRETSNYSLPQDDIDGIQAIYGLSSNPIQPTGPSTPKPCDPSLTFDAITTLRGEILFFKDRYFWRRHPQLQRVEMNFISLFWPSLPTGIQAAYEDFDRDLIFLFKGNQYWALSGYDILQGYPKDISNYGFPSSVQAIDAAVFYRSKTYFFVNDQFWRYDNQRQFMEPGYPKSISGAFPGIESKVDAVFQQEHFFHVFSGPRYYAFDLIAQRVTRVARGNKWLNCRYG", "test": "MMP13 inhibition and MMP selectivity, late-stage follow-up, selectivity assay for MMP13 inhibitor project, biochemical, probe development, late stage results, panel member MMP-8 [IC50 Assay] (AID 2067)"}, "[9]": {"molecular_target": "Scavenger receptor class B member 1 (Mus musculus, UniProt Q61009)", "sequence (Q61009 whole entry)": "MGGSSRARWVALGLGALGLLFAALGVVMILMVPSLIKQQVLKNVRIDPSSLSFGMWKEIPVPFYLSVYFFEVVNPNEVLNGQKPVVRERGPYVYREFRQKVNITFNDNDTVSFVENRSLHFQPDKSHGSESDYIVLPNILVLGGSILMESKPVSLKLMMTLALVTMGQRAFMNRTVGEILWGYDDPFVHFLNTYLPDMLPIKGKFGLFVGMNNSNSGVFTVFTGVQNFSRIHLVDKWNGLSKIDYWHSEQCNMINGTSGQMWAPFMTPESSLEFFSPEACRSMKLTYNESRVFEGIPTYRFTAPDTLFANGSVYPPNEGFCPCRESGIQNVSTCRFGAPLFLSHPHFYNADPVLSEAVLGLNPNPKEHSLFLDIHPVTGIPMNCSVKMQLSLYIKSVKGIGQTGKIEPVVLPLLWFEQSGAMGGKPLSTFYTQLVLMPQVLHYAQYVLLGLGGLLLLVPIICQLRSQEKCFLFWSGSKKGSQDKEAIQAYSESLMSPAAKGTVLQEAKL", "test": "inhibitors of SR-BI mediated HDL lipid uptake, dose response, ldlA[mSR-BI] cells, fluorescence, cherry pick (AID 493194);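 also: cellular uptake of fluorescent DiI-labeled HDL measured as cell fluorescence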", "assay_type": "functional, cell-based"}, "[10]": {"test": "inhibitors of Ran–importin-beta complex, dose response, biochemical, plate reader, dry powder (AID 493048)", "set-up": "species or system Homo sapiens"}}, "note": "Activity calls are given as the source filed them.", "data": [{"smiles": "O=C(NCc1ccccc1)C1=C[C@H](c2ccc(C(F)(F)F)cc2)C[C@H](OCc2ccc(CO)cc2)O1", "values": [{"measurement": "EC50", "setting": "[1]", "result": "5.96 µM (active)"}]}, {"smiles": "CC(C)C[C@@H](CSc1ccc(Br)cc1)N1CCN(CCc2ccccc2)CCC1=O", "values": [{"measurement": "EC50", "setting": "[2]", "result": "7.59 µM (active)"}]}, {"smiles": "COC(=O)C1=C(C)N(Cc2ccco2)C(=O)/C1=C\\c1ccc([N+](=O)[O-])cc1", "values": [{"measurement": "CC50", "setting": "Vero [3]", "result": "17.6 µM (active)"}, {"measurement": "IC50", "setting": "[4]", "result": "2.27 µM (active)"}, {"measurement": "CC50", "setting": "[5]", "result": "62.9 µM (active)"}, {"measurement": "IC50", "setting": "Vero [6]", "result": "> 25 µM (active)"}, {"measurement": "IC50", "setting": "Perilipin-1/ABHD5", "result": "2.07 µM (active)"}]}, {"smiles": "COCc1c(Br)c(C)nc(O)c1C#N", "values": [{"measurement": "AC50", "setting": "Trypsin", "result": "72.8 µM (active)"}]}, {"smiles": "C=CCc1ccccc1OCC(O)CN1CCN(c2ccc(C)cc2)CC1", "note": "(centres undefined)", "values": [{"measurement": "EC50", "setting": "[7]", "result": "8.5 µM (active)"}, {"measurement": "EC50", "setting": "[8]", "result": "14.8 µM (not active)"}, {"measurement": "EC50", "setting": "HEK293", "result": "1.78 µM (active)"}]}, {"smiles": "COC(=O)c1ccc(CSc2nc3c(c(=O)[nH]2)CCC3)cc1", "values": [{"measurement": "IC50", "setting": "Neutrophil collagenase", "result": "> 39.8 µM (inactive)"}]}, {"smiles": "Cc1cccc(N2CCN(C(=O)CN3C(=O)NC4(CCCCCC4)C3=O)CC2)c1C", "values": [{"measurement": "AC50", "setting": "[9]", "result": "47.4 µM (active)"}]}, {"smiles": "COCCNC(=O)/C(C#N)=C/c1cn(CC(=O)NCc2ccco2)c2ccccc12", "values": [{"measurement": "AC50", "setting": "[10]", "result": "174 µM (active)"}]}]}
